# Experiments:
# [1] = Inhibition of wild type Caldalkalibacillus thermarum TA2.A1 NDH2 preincubated for 1 hr followed by NADH addition measured after 8 mins
# [2] = Inhibition of C-terminal His-tagged Caldalkalibacillus thermarum TA2.A1 NDH2 R347C mutant preincubated for 1 hr followed by NADH addition measured after 8 mins
# [3] = Inhibition of C-terminal His-tagged Caldalkalibacillus thermarum TA2.A1 NDH2 R382C mutant preincubated for 1 hr followed by NADH addition measured after 8 mins
# [4] = system: Caldalkalibacillus thermarum TA2.A1; test: Selectivity ratio of IC50 for wild type Caldalkalibacillus thermarum TA2.A1 NDH2 to IC50 for C-terminal His-tagged Caldalkalibacillus thermarum TA2.A1 NDH2 R347C mutant
# [5] = system: Caldalkalibacillus thermarum TA2.A1; test: Selectivity ratio of IC50 for wild type Caldalkalibacillus thermarum TA2.A1 NDH2 to IC50 for C-terminal His-tagged Caldalkalibacillus thermarum TA2.A1 NDH2 R382C mutant
SMILES,IC50 [1],IC50 [2],IC50 [3],Ratio IC50 [4],Ratio IC50 [5]
CN(C)CCSSCCn1cc(-c2ccc(N(C)C)cc2)nn1,147 µM,56.8 µM,24 µM,3.6,3.6
CN1CCN(CCCN2c3ccccc3Sc3ccc(C(F)(F)F)cc32)CC1 [TRIFLUOPERAZINE],50 µM,–,–,–,–
NCCSSCCNC(=O)C1CCN(C(=O)c2ccc3ncsc3c2)CC1,52 µM,9.9 µM,18.6 µM,3.7,3.7
CN(C)CCSSCCNC(=O)C(CC(=O)c1ccccc1)c1cc2ccccc2n1C (stereo unspecified),12.8 µM,12.9 µM,7 µM,1.3,1.3

# Next, values leading:
IC50 [1],IC50 [2],IC50 [3],Ratio IC50 [4],Ratio IC50 [5],SMILES
5.6 µM,5.9 µM,6.3 µM,0.9,0.9,CN(C)CCSSCCNC(=O)c1ccc(C#Cc2ccccc2)o1
38.1 µM,60.8 µM,33.5 µM,0.8,0.8,CN(C)CCSSCCNC(=O)c1c(N)cccc1Cl
42.2 µM,5.9 µM,3.2 µM,9.3,9.3,CN(C)CCSSCCNC(=O)CCC(=O)c1ccccn1
11.3 µM,21.9 µM,13 µM,0.6,0.6,CN(C)CCSSCCNC(=O)[C@H]1CCCN(C(=O)c2cc3cccc(O)c3cc2O)C1
80.3 µM,26.5 µM,26.9 µM,3,3,CN(C)CCSSCCNC(=O)[C@H]1CCCN(C(=O)c2ccc(-n3cccc3)cc2)C1
61.9 µM,110 µM,32.6 µM,0.9,0.9,CN(C)CCSSCCNC(=O)c1cccc2cc[nH]c12
36 µM,14.5 µM,11.5 µM,2.8,2.8,CN(C)CCSSCCCNC(=O)c1cccc(N(C)C)c1
